Reference: patent US20170281566A1, “COMBINATIONS OF LSD1 INHIBITORS FOR THE TREATMENT OF HEMATOLOGICAL MALIGNANCIES” (HOFFMANN-LA ROCHE INC., priority 2016, published 2017)

Assays:
Format in all cases: cell-based
OCI-AML2 cells = assay: Viability assay (96 hours), Alamar Blue, single agent; settings: Homo sapiens, OCI-AML2, 96 h, read-out: EC50 (viability)
Protocol: (§1) AML cell lines were maintained in RPMI 10% FBS medium at 37° C. in a humidified incubator with controlled 5% CO2 atmosphere. Cell freezing and thawing was performed following recommendation from ATCC. Genetic profiling of the cell lines used is available in table 2. […] Three wells were reserved for each experimental condition; medium-only and vehicle-treated controls were also added for background correction and normalization respectively. […] Alamar Blue® is a cell viability indicator that uses the natural reducing power of living cells to convert resazurin to the fluorescent molecule, resorufin^43.

MV(4;11) cells = assay: as above
Protocol: as §1

THP-1 cells = assay: as above
Protocol: as §1

HL-60 cells = assay: as above
Protocol: as §1

OCI-AML3 cells = assay: as above
Protocol: as §1

KASUMI-1 cells = assay: as above
Protocol: as §1

MOLM-13 cells = assay: as above
Protocol: as §1

MOLT4 cells = assay: Viability assay (10 days), Alamar Blue, single agent
Protocol: MOLT4 cells were maintained in RPMI 10% FBS medium at 37° C. in a humidified incubator with controlled 5% CO2 atmosphere. Cell freezing and thawing was performed following recommendation from ATCC. Genetic profiling of the cell lines used is available in table 4.
2.1.2 Viability Assays (10 Days)
Three wells were reserved for each experimental condition; medium-only and vehicle-treated controls were also added for background correction and normalization respectively. After seeding, 50 μL of medium containing 8 1:3 serial dilution of ORY-1001 were added to the cells (range 0.015-100 nM). Cells were then incubated for 6 days at 37° C. in a controlled 5% CO2 atmosphere. On the sixth day, 1004, of medium with serial dilutions of ORY-1001 (as described previously) or vehicle were added to the cells. Medium without compound (100μ) was added to background control.
After 4 additional days of incubation, cell viability was evaluated using the Alamar Blue® staining as detailed in the section 1.1.2.

EC50 (viability) (MOLT4 cells; MOLT4, 10 days of treatment, single agent)	EC50 (viability) (THP-1 cells; THP-1, 96 hours, single agent)	EC50 (viability) (HL-60 cells; HL-60, 96 hours, single agent)	EC50 (viability) (OCI-AML3 cells; OCI-AML3, 96 hours, single agent)	EC50 (viability) (MOLM-13 cells; MOLM-13, 96 hours, single agent)	Structure (SMILES)	EC50 (OCI-AML2 cells)	EC50 (MV(4;11) cells; Homo sapiens, MV4-11, 96 h, read-out: EC50 (viability))	EC50 (THP-1 cells; Homo sapiens, THP-1, 96 h, read-out: EC50 (viability))	EC50 (HL-60 cells; Homo sapiens, HL-60, 96 h, read-out: EC50 (viability))	EC50 (OCI-AML3 cells; Homo sapiens, OCI-AML-3, 96 h, read-out: EC50 (viability))	EC50 (KASUMI-1 cells; Homo sapiens, Kasumi 1, 96 h, read-out: EC50 (viability))	EC50 (MOLM-13 cells; Homo sapiens, MOLM-13, 96 h, read-out: EC50 (viability))	Effect on viability of MOLT-4 cells (MOLT4 cells; shorter treatment (96 hours), data not shown)	EC50 (viability) (MV(4;11) cells; MV(4;11), 96 hours, single agent)	EC50 (viability) (KASUMI-1 cells; KASUMI-1, 96 hours, single agent)
					O=C(CCCCCCNC(=O)c1cnc(N(c2ccccc2)c2ccccc2)nc1)NO [Rocilinostat, Ricolinostat, reference compound]	500 to 3000 nM	500 to 3000 nM	500 to 3000 nM	500 to 3000 nM	500 to 3000 nM	500 to 3000 nM	500 to 3000 nM			
sub-nanomolar	sub-nanomolar	sub-nanomolar	sub-nanomolar	sub-nanomolar	N[C@H]1CC[C@H](N[C@@H]2C[C@H]2c2ccccc2)CC1 [ORY-1001, (trans)-N1-((1R,2S)-2-phenylcyclopropyl)cyclohexane-1,4-diamine]								not affecting the viability	sub-nanomolar	sub-nanomolar
